{
  "source": "paper PMC6627374",
  "about": "“Effects of the Pentapeptide P33 on Memory and Synaptic Plasticity in APP/PS1 Transgenic Mice: A Novel Mechanism Presenting the Protein Fe65 as a Target” (International Journal of Molecular Sciences, 2019)",
  "key": {"synaptophysin (SYN)": {"tested_on": "synaptophysin (SYN)", "assay": "Western blot, synaptophysin (SYN) level", "type": "in vivo, mouse", "details": "four groups WT/APP/PS1, vehicle/P33; 5 mg∙kg^−1 i.p., six months", "protocol": "For this study, three-month-old male and female WT and APP/PS1 mice (n = 37) were used. Four groups were defined: WT-vehicle (physiological saline) (male n = 4; female n = 6), WT-P33 (male n = 6; female n = 5), APP/PS1-vehicle (male n = 3; female n = 5), and APP/PS1-P33 (male n = 6; female n = 2). Animals were subjected to intraperitoneal (i.p.) injections of P33 (5 mg∙kg^−1) for five days per week, over a course of six months. The mice were kept in groups under constant temperature (23 ± 0.5 °C), lighting (12-h/12-h light/dark cycle, lights on at 7:00 a.m.), and humidity (~50%). Standard mouse chow and tap water were supplied ad libitum. All behavioral experiments were performed in the light period. […]\nProtein samples, identically prepared as for ELISA, (20 μg/lane) were separated on a 15% SDS-polyacrylamide gel (80 V, 20 min at RT; than 130 V, 60 min at RT) or on a 4–12% NuPAGE® Bis-Tris Gel (Thermo Fischer Scientific, Waltham, MA, USA, 200V, 30 min at RT) and transferred to a nitrocellulose membrane (Whatman, Maidstone, UK, 450 mA, 90 min at 4 °C). […] Membranes were scanned with a Bio-Rad Molecular Imager® ChemiDoc™ XRS+Imaging System (Bio-Rad Laboratories, Hercules, CA, USA) and evaluated with the Image Lab 4.0 software.\nThe results of spine density and immunohistochemistry experiments were calculated with one-way ANOVA followed by Fisher’s LSD post hoc tests. […]"}, "Iba1-positive microglia": {"tested_on": "Iba1-positive microglia", "assay": "Iba1 immunohistochemistry, microglia density", "type": "in vivo, mouse", "details": "APP/PS1-vehicle vs. WT-vehicle, WT-P33, APP/PS1-P33; HC and CTX; 5 mg∙kg^−1 i.p., six months", "protocol": "For this study, three-month-old male and female WT and APP/PS1 mice (n = 37) were used. Four groups were defined: WT-vehicle (physiological saline) (male n = 4; female n = 6), WT-P33 (male n = 6; female n = 5), APP/PS1-vehicle (male n = 3; female n = 5), and APP/PS1-P33 (male n = 6; female n = 2). Animals were subjected to intraperitoneal (i.p.) injections of P33 (5 mg∙kg^−1) for five days per week, over a course of six months. The mice were kept in groups under constant temperature (23 ± 0.5 °C), lighting (12-h/12-h light/dark cycle, lights on at 7:00 a.m.), and humidity (~50%). Standard mouse chow and tap water were supplied ad libitum. All behavioral experiments were performed in the light period. Handling was done daily at the same time.\nMice (five animals per group) were anaesthetized with chloral-hydrate (1 mg∙kg^−1) and perfused transcardially with PBS, followed by ice-cold 4% paraformaldehyde. The brains were removed, post-fixed in the same fixative, and immersed in a 30% sucrose solution containing 0.01% sodium-azide. […]\nSlides were scanned by a digital slide scanner (Mirax Midi, 3DHistech Ltd., Budapest, Hungary), equipped with a Pannoramic Viewer 1.15.4, CaseViewer 2.1 program and a QuantCenter, HistoQuant module (3DHistech Ltd., Budapest, Hungary). For quantification, all of the sections were analyzed. […] Antibody-positive cell types from the ROIs were counted and quantified. […]"}},
  "note": "Where a SMILES comes first, the peptide text is derived from it.",
  "data": [
    {"smiles": "C[C@@H](N)C(=O)N1CCC[C@@H]1C(=O)N[C@H](C)C(=O)N1CCC[C@@H]1C(=O)N[C@H](CCC(=O)O)C(N)=O", "note": "[P33] (HELM PEPTIDE1{[dA].[dP].[dA].[dP].[dE].[am]}$$$$V2.0)", "values": [
      {"measurement": "SYN level, effect (in words)", "setting": "synaptophysin (SYN)", "result": "significant differences were not found between the groups"},
      {"measurement": "density of Iba1-positive microglia (in words)", "setting": "Iba1-positive microglia", "result": "higher in the APP/PS1-vehicle treated mice than in the other groups"}
    ]}
  ]
}
